Experimental findings from PMC11047535, “Pharmacokinetics and Nephrotoxicity of Polymyxin MRX-8 in Rats: A Novel Agent against Resistant Gram-Negative Bacteria” (Antibiotics, 2024) are described below.

Molecules are shown by their SMILES. Like-named read-outs stand apart in the source and are kept apart here. Positions of bridges follow the written chain, without caps; N, C: chain ends. Non-standard residues stand in square brackets, D forms with d. Residues, ends and D or L forms follow the SMILES beside them. *: point of attachment. Propanoyl(3-OH) = O=C(CCO)*; X1 = CC[C@H](C)CCCCC(=O)*; Dab = NCC[C@H](N)C(=O)O

What all share (assay type): in vivo, Sprague-Dawley (SD) rats
Data set [1] can be described thus: Pharmacokinetics in rat plasma after single subcutaneous administration (LC-MS/MS, non-compartmental analysis). As to conditions: for CLz (total body clearance for extravascular administration) / V (volume of distribution) / AUC(0-t) / Cmax / Tmax / MRT / half-life: LC-MS/MS, NCA, n = 5; for AUC(0-t) / Cmax / Tmax / MRT / half-life: Sprague-Dawley, sc; for MRT: read-out: MRT (mean residence time); for half-life: read-out: T1/2 (terminal half-life) (converted). The protocol:
A Shimadzu LC-30A UHPLC system (Shimadzu, Kyoto, Japan) coupled with a Sciex QTRAP-5500 tandem mass spectrometer (Sciex, Framingham, MA, USA) was utilized. The chromatography was separated on a PHENOMENEX Kinetex®XB-C18 column (Phenomenex, Torrance, CA, USA) (100 mm × 2.1 mm, 2.6 μm) at 40 °C. The mobile phases were 2 mM of an ammonium acetate solution with 0.1% formic acid as the aqueous phase and acetonitrile solution with 0.1% formic acid as the organic phase. The gradient elution condition settings are detailed in Table S1. The mass spectrometer was operated in positive ESI mode with the following parameters: nebulizer gas (45 psi), heater gas (55 psi), curtain gas (40 psi), ion-spray voltage 4500 V, and ion source temperature of 450 °C.
An aliquot of 40 μL of rat plasma samples, 50 μL of polymyxin B1 (IS, 20 mg/L), and 50 μL of 6% formic acid in water were mixed. Then, 300 μL of acetonitrile was added to the mixture to precipitate proteins and centrifuged at 4 °C at 13,800 g for 10 min. A 100 μL aliquot of the supernatant was transferred and mixed with 150 μL of 6% formic acid water, and 5 μL was injected into the LC-MS/MS system.
A total of 20 wild-type male Sprague-Dawley (SD) rats weighing 280 g ± 20 g were randomly divided into 4 groups. Water and food were adequately provided. Four groups were given MRX-8 at doses of 2 mg/kg, 4 mg/kg, 6 mg/kg, and 8 mg/kg of body weight (dissolved in normal saline). 0.5 mL of blood samples were obtained from the jugular vein (without anesthesia) before and 0.25, 0.5, 1, 2, 4, 6, 8, and 24 h after dosing. Blood samples were collected into tubes with EDTA-K2 anticoagulant and centrifuged at 4 °C at 3500 g for 10 min. The plasma was collected and stored in a −70 °C refrigerator until analysis.
In the meantime, 10 additional SD rats were divided into two groups (5 rats each) and administered PMB at 4 mg/kg and 8 mg/kg, separately. Blood samples were obtained before and 0.25, 0.5, 1, 2, 4, 6, 8, 10, 12, and 24 h after dosing. The drug administration and sample collection methods were consistent with those used for MRX-8.
MRX-8 and MRX-8039 concentrations in plasma were measured, and mean concentration–time curves were plotted. […] After the administration, concentrations below the LLOQ were discarded.

In data set [2] the test system is rats. In words: Creatinine in rat plasma (nephrotoxicity), ADVIA Chemistry XPT analyzer. As to conditions: for creatinine concentration: SD rats. How it is done: (§1) Rats’ plasma and urine were collected continuously for 24 h after being administered subcutaneously. The plasma collected for the PK assay was split for creatinine and BUN concentrations, whereas a separate experiment was conducted to measure the biomarkers. The concentrations of creatinine and BUN in rat plasma were quantified utilizing the ADVIA Chemistry XPT analyzer (Siemens Healthcare, Munich, Germany). Rat plasma samples, along with quality control samples, were prepared and processed with dedicated reagent cartridges.

Data set [3] deals with rats. In words: Blood urea nitrogen (BUN) in rat plasma (nephrotoxicity), ADVIA Chemistry XPT analyzer. Conditions: for BUN level: SD rats. How it is done:
as §1

Data set [4] relates to rats. In words: Plasma NGAL kidney injury biomarker, ELISA. Conditions: 24 h after single s.c. 8 mg/kg, saline group 53.03 ± 2.25. The protocol: as §1
(§2) Enzyme-linked immunosorbent assay kits specific for KIM-1 (Cell Signaling Technology, Danvers, MA, USA), NGAL (Sangon Biotech, Shanghai, China), and TIMP-1 (Sangon Biotech, Shanghai, China) were utilized for analysis.
For orientation: An ELISA detects its analyte on a solid surface through an enzyme-linked reagent.

Data set [5] deals with rats. Put plainly: Urinary NGAL kidney injury biomarker, ELISA. As to conditions: saline group 45.22 ± 1.46. How it is done: as §1, §2
The subject of data set [6] is rats. Put plainly: Urinary KIM-1 kidney injury biomarker, ELISA. As to conditions: 24 h after single s.c. 4 and 8 mg/kg, high variability within each group. The protocol: as §1, §2
For data set [7], the system named is rats. In words: Urinary TIMP-1 kidney injury biomarker, ELISA. Conditions: for urinary TIMP-1 level: saline group 2.89 ± 1.80. The protocol: as §1, §2
The next data set relates to rat kidney tissues. Put plainly: Kidney histology, PAS staining and semi-quantitative scores (SQS). As to conditions: PAS staining. The protocol:
The kidney tissues were taken 24 h after the PK sample collection. The tissues were embedded in paraffin, sliced, dewaxed into water, and washed for 5 min. […] The pathology scores refer to the paper published by Jumana et al.. Briefly, the renal histological assessment included three grades of tubular damage. Scores were assigned to grades: grade 1 = 1, grade 2 = 4, and grade 3 = 10. Kidney involvement was assessed based on the percentage of affected slices: <1% = 0, 1 to <5% = 1, 5 to <10% = 2, 10 to <20% = 3, 20 to <30% = 4, 30 to <40% = 5, and ≥40% = 6. The overall score was calculated by multiplying the percentage score with the grade score. Finally, SQS for renal histological changes was assigned: SQS 0 = no significant change (overall score: <1); SQS +1 = mild damage (overall score: 1 to <15); SQS +2 = mild-to-moderate damage (overall score: 15 to <30); SQS +3 = moderate damage (overall score: 30 to <45); SQS +4 = moderate-to-severe damage (overall score: 45 to <60); and SQS +5 = severe damage (overall score: 60). The samples in this experiment were examined by pathologist Shaojun Liu, who had no knowledge of the grouping.
A one-way ANOVA was performed to evaluate (1) the PK parameters of T1/2, CLZ, V, and MRT at the dosages of 4, 6, and 8 mg/kg; (2) the concentrations of kidney injury biomarkers between the saline, MRX-8, and PMB groups. […]

The mark [8] stands for this setting: SD rats, single s.c. dose 4 mg/kg, plasma.
Where [9] appears, read: SD rats, single s.c. dose 8 mg/kg, plasma.
Setting [10] is: rat, in vivo, SD rats, single s.c. dose 4 mg/kg, plasma.
Setting [11] is: rat, in vivo, SD rats, single s.c. dose 8 mg/kg, plasma.

As usually defined, the Cmax is the maximum level reached in the sampled fluid or tissue. The Tmax is the time at which the peak concentration occurs. The term MRT denotes the average time that molecules of a dose stay in the body. On to `CC[C@H](C)CCCCC(=O)N[C@@H](CCN)C(=O)N[C@H](C(=O)N[C@@H](CCN)C(=O)N[C@H]1CCNC(=O)[C@H]([C@@H](C)O)NC(=O)[C@H](CCN)NC(=O)[C@H](CCN)NC(=O)[C@H](CC(C)C)NC(=O)[C@@H](Cc2ccccc2)NC(=O)[C@H](CCN)NC1=O)[C@@H](C)O` [PMB, polymyxin B] (X1-[Dab]T[Dab][Dab][Dab][dF]L[Dab][Dab]T; lactam 4-C), for which, in data set [1] (SD rats, s.c. administration, plasma, range over dose groups), the “Tmax (absorption, as read from Figure 3)” value is listed as 4~6 h. Moreover, the “CLz (total body clearance for extravascular administration)” value in data set [1] (setting [8]) was 4 ± 1 mL/min/kg; in data set [1] (setting [9]), 4.17 ± 0.33 mL/min/kg. The “V (volume of distribution)” value in data set [1] (setting [8]) turned out to be 1.52 ± 0.27 L/kg; in data set [1] (setting [9]), 1.49 ± 0.31 L/kg. The AUC(0-t) in data set [1] (rat, in vivo, 4 mg/kg, SD rats, single s.c. dose 4 mg/kg, plasma, read-out: AUC0–8 h) turned out to be 9550 ± 2540 ng·h/mL; in data set [1] (rat, in vivo, 4 mg/kg, SD rats, single s.c. dose 4 mg/kg, plasma, read-out: AUC0–24 h), 17100 ± 3900 ng·h/mL; in data set [1] (rat, in vivo, 8 mg/kg, SD rats, single s.c. dose 8 mg/kg, plasma, read-out: AUC0–8 h), 17900 ± 3050 ng·h/mL; in data set [1] (rat, in vivo, 8 mg/kg, SD rats, single s.c. dose 8 mg/kg, plasma, read-out: AUC0–24 h), 31200 ± 3140 ng·h/mL. Besides, the figures for the Cmax in data set [1] (setting [10]) and in data set [1] (setting [11]) were 1770 ± 510 ng/mL and 3150 ± 440 ng/mL, respectively. Further, the time to peak (Tmax) in data set [1] (setting [10]) came out at 4.8 ± 1.1 h; in data set [1] (setting [11]) it was 6 h. Moreover, the MRT is 8.66 ± 0.7 h in data set [1] (setting [10]) and 8.23 ± 0.71 h in data set [1] (setting [11]). For the same compound, the half-life in data set [1] (setting [10]) was 4.55 ± 0.56 h; in data set [1] (setting [11]) it was 4.09 ± 0.44 h. The creatinine concentration in the data set on rats [2] (8 h after single s.c. 4 mg/kg, saline group 21.25 ± 2.22) was determined as 103.86 ± 12.66 µmol/L; with rats [2] (8 h after single s.c. 8 mg/kg, saline group 21.25 ± 2.22) it was 85.61 ± 17.27 µmol/L; in the data set with rats [2] (24 h after single s.c. 4 mg/kg, saline group 22.5 ± 2.52), 169.79 ± 61.93 µmol/L; with rats [2] (24 h after single s.c. 8 mg/kg, saline group 22.5 ± 2.52) it was 110.81 ± 67.3 µmol/L. The “change of blood creatinine levels compared to the saline group” value with rats [2] (8 h and 24 h after single s.c. dose (MRX-8 2 to 8 mg/kg; PMB 4 and 8 mg/kg), one-way ANOVA) is on record as “significant increase”. The BUN level in the data set with rats [3] (8 h after single s.c. 4 mg/kg, saline group 5.52 ± 0.56) is on record as 19.58 ± 3.05 mmol/L; in the data set on rats [3] (8 h after single s.c. 8 mg/kg), 15.36 ± 3.05 mmol/L; with rats [3] (24 h after single s.c. 4 mg/kg), 44.3 ± 1.12 mmol/L; in the data set on rats [3] (24 h after single s.c. 8 mg/kg), 54.85 ± 11.81 mmol/L. For the same compound, the “change of BUN levels compared to the saline group” value in the data set with rats [3] (8 h and 24 h after single s.c. dose (PMB 4 and 8 mg/kg; MRX-8, except significant increase at 4 mg/kg at 8 h)) is reported as “significant increase”. Besides, the “NGAL level in plasma” value in the data set with rats [4] was 61.14 ± 2.52 ng/mL. For the same compound, the figures for the “urinary NGAL level” value with rats [5] (24 h after single s.c. 4 mg/kg) and in the data set with rats [5] (24 h after single s.c. 8 mg/kg) were 50.34 ± 2.70 ng/mL and 56.95 ± 6.01 ng/mL, respectively. Moreover, in the data set on rats [6], the “change of urine KIM-1 levels compared to the saline group” value was “No statistically significant differences”. For the same compound, the entries for the “urinary TIMP-1 level” value in the data set with rats [7] (24 h after single s.c. 4 mg/kg) and in the data set with rats [7] (24 h after single s.c. 8 mg/kg) were 20.65 ± 12.44 ng/mL and 20.54 ± 7.82 ng/mL, respectively. For the same compound, the “change of urinary TIMP-1 compared to the saline group” value with rats [7] (24 h after single s.c. 4 and 8 mg/kg) is “increased significantly”. Further, the “histological findings in kidney tissues” value with rat kidney tissues (24 h post single s.c. dose of 8 mg/kg) is “more severe renal damage, including tubular dilation, cellular necrosis, and tubular formation”; in the data set on rat kidney tissues (24 h post single s.c. dose, compared to the saline group) it was “mild focal tubular cell shedding and cytoplasmic attenuation”.
`CC(C)C[C@@H]1NC(=O)[C@@H](Cc2ccccc2)NC(=O)[C@H](CCN)NC(=O)[C@@H](NC(=O)[C@H](CCN)NC(=O)[C@@H](NC(=O)[C@H](CCN)NC(=O)CCO)[C@@H](C)O)CCNC(=O)[C@H]([C@@H](C)O)NC(=O)[C@H](CCN)NC(=O)[C@H](CCN)NC1=O` [MRX-8039] ({Propanoyl(3-OH)}-[Dab]T[Dab][Dab][Dab][dF]L[Dab][Dab]T; lactam 4-C): in data set [1] (rat, in vivo), the “Tmax delay of MRX-8039 relative to MRX-8” value is given as “approximately 1.5 h”.
